Laboratory results as given in publication PMC4192597, “Antimicrobials, Stress and Mutagenesis” (PLoS Pathogens, 2014).
≈ marks a conversion by molar mass, not a printed value. Like-named read-outs stand apart in the source and are kept apart here. Ends that are not written are not given here.

Key:
[1] = system: E. coli MG1655; experiment: Minimal inhibitory concentration (MIC), micro-dilution; type: cell-based, Escherichia coli; details: inoculum 2×10^8 cfu/ml, 24 h, liquid MH medium, 37°C
Experimental: E. coli K-12 MG1655 was used for all experiments, grown in liquid Mueller-Hilton (MH) agar or agarose, unless otherwise indicated. All experiments were carried out at 37°C.
MICs were determined according to CLSI recommendations by a micro-dilution method with the exception that the inoculum size that was adjusted to 2×10^8 cfu/ml from a regrowth of overnight cultures to be consistent with the mutagenesis experiments. […] Polypropylene non-binding plates (Th. Geyer, Germany) were used for all experiments.

[2] = system: E. coli stress response genes; details: kanamycin 5 μg/ml, ref Kohanski,2007, cited from earlier work
[3] = system: E. coli stress response genes (strain MG1655); experiment: Relative gene expression of stress response genes by quantitative real-time PCR; type: cell-based, Escherichia coli; details: for Expression, cpxA (Envelope stress) / Expression, cpxR (Envelope stress) / Expression, dinB (SOS response) / Expression, lexA (SOS response) / Expression, marR (Independent multiple antibiotic resistance) / Expression, oxyR (Oxidative stress) / Expression, phoP (Envelope stress) / Expression, phoQ (Envelope stress) / Expression, recA (SOS response) / Expression, rpoE (Envelope stress) / Expression, rpoS (Sigma S response) / Expression, umuC (SOS response): normalized to arcA, mdoG, tus, Pexiganan 16, Melittin 16, Kanamycin 16, Ciprofloxacin 0.5, Lysozyme 128, Ampicillin 32 μg/ml, three biological replicates; on Result, cpxR: key: NDE: non-differentially expressed, p-value ≥ 0,05; UP: upregulated, p-value ≤ 0,05; DOWN: downregulated, p-value ≤ 0,05; on Result, oxyR: key: NDE: non-differentially expressed, p-value ≥ 0,05; UP: upregulated, p-value ≤ 0,05; DOWN: downregulated, p-value ≤ 0,05; on Result, rpoE: key: NDE: non-differentially expressed, p-value ≥ 0,05; UP: upregulated, p-value ≤ 0,05; DOWN: downregulated, p-value ≤ 0,05
Experimental: Preparation of each of the six treatments and the control samples was carried out by two operators on three consecutive days, thereby comprising three biological replicates for each of the six experimental and one control groups. To obtain the starting material for the experiment, a fresh bacterial culture was grown from a glycerol stock on Mueller-Hinton (MH) agar plates at 37°C for 18–24 hours. One well-isolated colony per biological replicate was used to inoculate 2 ml of liquid MH (Sigma) in a 10 ml sterile polypropylene tube and incubated at 37°C for 16 hours with mild shaking. The overnight (ON) culture was then diluted 1∶100 in MH, subdivided into seven 10 ml aliquots and incubated in 50 ml-Falcon tubes at 37°C for 2.5 hours at 220 rpm. When the OD600 of bacterial cultures reached 0.5–0.7, respective antibiotics and AMPs were added to a concentration to match with those used in the mutagenesis experiments. These bacterial cultures were incubated for 20 minutes at 37°C with gentle shaking. Two ml of bacterial cultures from each treatment and the control were collected, immediately centrifuged at 10000 g for 2 minutes and the supernatant was removed to stop the treatment. The bacterial pellet was then resuspended in 1 ml MH, followed by an addition of 1 ml of RNAprotect Bacteria Reagent (Qiagen), 5 minutes incubation and centrifugation at 10000 g for 2 minutes at room temperature. The supernatant was discarded and the bacterial pellet was immediately frozen and stored at −80°C until RNA extraction.
Total RNA was isolated using RNeasy kit (Qiagen) according to the manufacturer's instructions and eluted in 50 µl of RNase-free water. The nucleic acid yield and purity were determined by measuring the optical density at A260/280 using a Nanodrop spectrophotometer (Thermo Scientific). RNA samples were treated with TURBO DNase (Life Technologies). Briefly, ten µg of RNA were used in a total volume of 500 µl containing 20 units of TURBO DNase, incubated for 30 minutes at 37°C, immediately followed by RNeasy (Qiagen) cleanup and elution in 30 µl of RNase-free water. Following DNase treatment, RNA integrity was assessed using Agilent RNA 6000 Nano kit and 2100 Bioanalyzer instrument (both Agilent Technologies).
High-Capacity cDNA Reverse Transcription Kit with RNase Inhibitor (Applied Biosystems) was used for cDNA synthesis. Initially, to ensure linear conversion of the transcripts, the dynamic range of reverse transcription reaction was tested by performing a standard curve with cDNA, synthesised using various input amounts of pooled RNA. Total RNA (250 ng per reaction) and random primers were used for cDNA synthesis. To obtain sufficient amount of cDNA, several batches of 20 µl RT reactions were pooled, diluted 50-fold with RNase-free water and stored in single-use aliquots at −80°C until further use. All 21 samples were tested for presence of contaminating genomic DNA by running the mdoG assay with cDNA and the respective no reverse transcription (−RT) controls.
Escherichia coli strain K-12 substrain MG1655 complete genome (accession U00096) sequence was downloaded from NCBI database (www.ncbi.nlm.nih.gov) and used for primer design. Target sequence accession number, location of the amplicon, amplicon length and primer sequences for each assay can be found in table S2. Primers were designed using Primer Express software (Applied Biosystems) and optimized for annealing temperature of 60°C. Each primer pair and amplicon were checked for secondary structure formation using Oligo Tool (Integrated DNA technologies, http://eu.idtdna.com/analyzer/Applications/OligoAnalyzer/).

[4] = system: E. coli MG1655; experiment: Killing by AMPs under thiourea ROS scavenger; type: cell-based, Escherichia coli; details: thiourea 100 mM (Figure S3)
Experimental: SOS and rpoS mediated mutagenesis are well supported by empirical work, and it was recently proposed that antibiotics promote ROS formation and kill bacterial by lethal induction of hydroxyl-mediated DNA damage. Here we explored this new and debated proposition also for AMPs. We assessed AMP killing curves in E. coli MG1655 in the presence of the ROS scavenger thiourea (100 mM) and used Kanamycin as positive control.
Kanamycin was used a positive control. The procedure was the same as described in this work elsewhere for MIC50 (Fig. S3).

[5] = system: E. coli MG1655; experiment: microbe, parasite or virus in culture; type: cell-based, Escherichia coli; details: 4 hours, 50% reduction of CFUs vs control, Mueller Hinton Broth, 37°C, five replicates, repeated twice
Experimental: The MIC50s for all antimicrobials were determined by inoculating strains grown to mid-log phase into the wells of a 96-microwell plate. Approximately 10^2 cells from overnight cultures were inoculated into tubes containing 10 ml of Mueller Hinton Broth medium, and the tubes were incubated at 37°C with strong shaking until the mid-log phase of growth (approximately 10^8 cells/ml). […] The plates were incubated at 37°C for 4 h with continuous shaking in a plate reader (Synergy 2, BioTeK). After four hours, aliquots from wells with OD^600 readings ranging from 10 to 90% values in comparison with the control, were serially diluted in sterile 0.9% NaCl, and incubated during 1 hour to allow the resolution of filaments as consequence of SOS activation, if any. Bacterial suspensions were plated in Mueller Hinton Broth agar plates to estimate the viability as colony forming units (CFUs). Five replicates per concentration were prepared and the experiments were repeated twice.

[6] = system: E. coli MG1655; experiment: Luria-Delbrück fluctuation assay, mutation rate (rifampicin resistance); type: cell-based, Escherichia coli; details: concentrations ranging from 0.5 to 4 µg/ml (Figure S1)
Experimental: We first investigated the mutation rates of E. coli using a Luria-Delbrück fluctuation test. We used the Escherichia coli strain MG1655 and the concentration of all antimicrobials was adjusted to limit bacterial growth to 50% in four hours of treatment.
The duration of treatment was set to 4 hours for all antimicrobials, and the concentrations were adjusted to obtain around 50% of inhibition of grow in comparison to the a non-treated control. Three ml of exponentially growing culture of E. coli MG1655 (∼2×10^8 cells/ml) were centrifuged at 4000 g for 10 minutes and re-suspended in the same volume of MH with different concentrations of antimicrobials at 37°C with shaking (200 rpm). After incubation, the cultures were centrifuged for 10 min at 4000 g. The pellet was re-suspended, washed twice with MH and re-suspended in 3 ml of fresh medium and incubated overnight (16 h) at 37°C with shaking. This step is necessary to resolve the filaments that some antimicrobials induce due to their toxic action and allow recovery of cells under stress. Cultures were diluted and plated to determine the number of colony forming units in MH agar plates. The number of mutants was estimated by the number of colonies growing on rifampicin (100 µg/ml). […]
We also assessed if different AMP concentrations (Fig. S1) or different inoculum sizes (10^2, 10^4, 10^6, 10^8 cfu/ml) influenced mutation rates (Fig. S2).

[7] = qPCR, 20 minutes exposure vs non-treated bacteria, REST 2009 randomisation test
[8] = qPCR, 20 minutes exposure vs non-treated bacteria

| Molecule | MIC [1] | Result, cpxA [3, 7] | Result, cpxR [3, 7] | Result, dinB [3, 7] | Result, lexA [3, 7] | Result, marR [3, 7] | Result, oxyR [3, 7] | Result, phoP [3, 7] | Expression, cpxA (Envelope stress) [3, 8] | Expression, cpxR (Envelope stress) [3, 8] | Expression, dinB (SOS response) [3, 8] | Expression, lexA (SOS response) [3, 8] | Expression, marR (Independent multiple antibiotic resistance) [3, 8] | Expression, oxyR (Oxidative stress) [3, 8] | Expression, phoP (Envelope stress) [3, 8] | Expression, phoQ (Envelope stress) [3, 8] | Expression, recA (SOS response) [3, 8] | Expression, rpoE (Envelope stress) [3, 8] | Expression, rpoS (Sigma S response) [3, 8] | Expression, umuC (SOS response) [3, 8] | further results |
| --- | --- | --- | --- | --- | --- | --- | --- | --- | --- | --- | --- | --- | --- | --- | --- | --- | --- | --- | --- | --- | --- |
| NC[C@H]1O[C@H](O[C@H]2[C@H](O)[C@@H](O[C@H]3O[C@H](CO)[C@@H](O)[C@H](N)[C@H]3O)[C@H](N)C[C@@H]2N)[C@H](O)[C@@H](O)[C@@H]1O [Kanamycin] | 2 mg/L (≈ 4.13 µM) | NDE | NDE | NDE | NDE | NDE | NDE | NDE | 1.069 | 0.812 | 1.083 | 1.302 | 1.073 | 1.333 | 0.94 | 0.769 | 1.331 | 1.236 | 0.967 | 0.974 | expression, rpoE (microarray database) ([2]; 30 min): 2.118; expression, marR (microarray database) ([2]; 60 min): 8.767; expression, phoP (microarray database) ([2]; 60 min): 2.411; expression, lexA (microarray database) ([2]; 120 min): 3.48; expression, oxyR (microarray database) ([2]; 120 min): 3.362; Result, phoQ [3, 7]: NDE; Result, recA [3, 7]: NDE; Result, rpoE [3, 7]: NDE; Result, rpoS [3, 7]: NDE; Result, umuC [3, 7]: NDE; killing / sensitivity in the presence of the ROS scavenger thiourea [4]: reduced sensitivity; MIC50 [5]: 1.6 mg/L |
| CC[C@H](C)[C@H](NC(=O)CN)C(=O)NCC(=O)N[C@@H](C)C(=O)N[C@H](C(=O)N[C@@H](CC(C)C)C(=O)N[C@@H](CCCCN)C(=O)N[C@H](C(=O)N[C@@H](CC(C)C)C(=O)N[C@H](C(=O)N[C@H](C(=O)NCC(=O)N[C@@H](CC(C)C)C(=O)N1CCC[C@H]1C(=O)N[C@@H](C)C(=O)N[C@@H](CC(C)C)C(=O)N[C@H](C(=O)N[C@@H](CO)C(=O)N[C@@H](Cc1c[nH]c2ccccc12)C(=O)N[C@H](C(=O)N[C@@H](CCCCN)C(=O)N[C@@H](CCCNC(=N)N)C(=O)N[C@@H](CCCCN)C(=O)N[C@@H](CCCNC(=N)N)C(=O)N[C@@H](CCC(N)=O)C(=O)N[C@@H](CCC(N)=O)C(N)=O)[C@@H](C)CC)[C@@H](C)CC)[C@@H](C)O)[C@@H](C)O)C(C)C)C(C)C [Melittin] | – | NDE | NDE | NDE | NDE | NDE | NDE | NDE | 1.295 | 0.953 | 0.991 | 1.1 | 0.743 | 1.337 | 0.857 | 0.87 | 1.12 | 1.197 | 0.972 | 0.926 | Result, phoQ [3, 7]: NDE; Result, recA [3, 7]: NDE; Result, rpoE [3, 7]: NDE; Result, rpoS [3, 7]: NDE; Result, umuC [3, 7]: NDE; MIC50 [5]: 1.6 mg/L; mutation rates over a gradient of sub-inhibitory to inhibitory concentrations [6]: did not change |
| GIGKFLKKAKKFGKAFVKILKK-NH2 (C-terminus assumed) [Pexiganan] | 2 mg/L | – | – | – | – | – | – | – | 0.893 | 0.846 | 1.114 | 1.049 | 4.048 | 1.187 | 3.074 | 2.447 | 0.733 | 1.108 | 1.353 | 0.925 | Result, cpxA [3]: NDE; Result, cpxR [3]: NDE; Result, dinB [3]: NDE; Result, lexA [3]: NDE; Result, marR [3]: UP (4.05-fold); Result, oxyR [3]: NDE; Result, phoP [3]: UP (3.07-fold); Result, phoQ [3]: UP (2.45-fold); Result, recA [3]: NDE; Result, rpoE [3]: NDE; Result, rpoS [3]: NDE; Result, umuC [3]: NDE; overexpression of three envelope stress genes (marR, phoP and phoQ) ([3]; qPCR, 20 minutes exposure): overexpression; mutation rates over a gradient of sub-inhibitory to inhibitory concentrations [6]: did not change |
